The values that follow come from US7094909B2, “HIV protease inhibitors, compositions containing the same, their pharmaceutical uses and materials for their synthesis” (priority 2001, dated 2006).

The structures appear in SMILES notation. A value given as a limit tells only on which side of the number the result lay.

Assay [1] addresses T1, HIV-1 protease (Q7S mutant form) (Human immunodeficiency virus type 1 group M subtype B, UniProt P04585, Q495S).
T1 construct: made in house
Nature of the assay: HIV-1 Protease RET assay. It counts as biochemical. The note with it: Ave. Ki (nM), RET assay, Q7S enzyme, Morrison tight binding fit. In outline:
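Q7S HIV-1 protease, refolded from urea, 2 nM active dimer with 5 μM EDANS/DABCYL peptide cleaved at Tyr-Pro; fluorescence 340/490 nm. 12 min at 37 °C in 0.1M sodium acetate pH 4.8, 1M NaCl, 10% DMSO. Ki from Morrison tight-binding fit.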

Assay [2] deals with HIV-1 (HIV-1 RF, HIV-1 NL4-3) in CEM-SS / MT-2 cells. In words: Cytopathic effect (CPE) inhibition assay (XTT/MTT dye reduction). To be noted: Human immunodeficiency virus 1, NL43; read-out: Ave CPE EC50. It counts as cell-based. In outline: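 CEM-SS or MT-2 cells were infected with HIV-1 RF or NL4-3 (moi 0.025–0.819) and plated at 2×10^4 cells/well with half-log compound dilutions for 6 days. Viability was read by XTT formazan at 450 nm after 4 h. EC50 restores formazan to 50% of uninfected untreated cells, CC50 halves it in uninfected cells, and TI = CC50/EC50.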
On the technique in general: Protection from cytopathic effect is a common read-out in antiviral testing.

`C=CCOC(=O)N[C@@H](Cc1ccccc1)[C@H](O)C(=O)N1CSC(C)(C)[C@H]1C(=O)NCc1ccccc1Cl` [Example B47, {(1S,2S)-1-Benzyl-3-[(R)-4(2-chloro-benzylcarbamoyl)-5,5-dimethyl-thiazolidin-3-yl]-2-hydroxy-3-oxo-propyl}-carbamic acid allyl ester] registered a Ki in assay [1] of 1.9 nM. Also, the EC50 in assay [2] is 1480 nM.

In assay [1], `C#CCOC(=O)N[C@@H](Cc1ccccc1)[C@H](O)C(=O)N1CSC(C)(C)[C@H]1C(=O)NCc1ccccc1Cl` [Example B48, {1-Benzyl-3-[4(2-chloro-benzylcarbamoyl)-5,5-dimethyl-thiazolidin-3-yl]-2-hydroxy-3-oxo-propyl}-carbamic acid prop-2-ynyl ester] yielded a Ki of 0.83 nM. For the same compound, the EC50 in assay [2] is 1480 nM.

The compound `C#CCOC(=O)N[C@@H](Cc1ccccc1)[C@H](O)C(=O)N1CSC(C)(C)[C@H]1C(=O)NCc1c(F)cccc1F` [Example B51, {1-Benzyl-3-[4-(2,6-difluoro-benzylcarbamoyl)-5,5-dimethyl-thiazolidin-3-yl]-2-hydroxy-3-oxo-propyl}-carbamic acid prop-2-ynyl] returned a Ki in assay [1] of 0.99 nM. Also, in assay [2], the EC50 is above 3200 nM.

The compound `C#CCOC(=O)N[C@@H](Cc1ccccc1)[C@H](O)C(=O)N1CSC(C)(C)[C@H]1C(=O)NCc1ccccc1C(F)(F)F` [Example B54, {1-Benzyl-3-[5,5-dimethyl-4-(2-trifluoromethyl-benzylcarbamoyl)-thiazolidin-3-yl]-2-hydroxy-3-oxo-propyl}-carbamic acid prop-2-ynyl ester] gave a Ki in assay [1] of 2.3 nM. Besides, in assay [2], the EC50 stood at 1660 nM.

In the case of `Cc1ccccc1CNC(=O)[C@H]1N(C(=O)[C@@H](O)[C@H](Cc2ccccc2)NC(=O)NCc2ccccc2)CSC1(C)C` [Example B59, 3-[(2S,3S)-3-(3-Benzyl-ureido)-2-hydroxy-4-phenyl-butyryl]-5,5-dimethyl-thiazolidine-4-carboxylic acid 2-methyl-benzylamide], the Ki in assay [1] came to 2.1 nM. Further, the EC50 in assay [2] amounted to 1820 nM.

In turn, `COc1ccc(CNC(=O)N[C@@H](Cc2ccccc2)[C@H](O)C(=O)N2CSC(C)(C)[C@H]2C(=O)NCc2ccccc2C)cc1` [Example B60, 3-{(S)-2-Hydroxy-3-[3-(4-methoxy-benzyl)-ureido]-4phenyl-butyryl}-5,5-dimethyl-thiazolidine-4-carboxylic acid 2-methyl-benzylamide] returned a Ki in assay [1] of 1.1 nM. The half-maximal effective concentration (EC50) in assay [2] was above 3200 nM.

Consider `C#CCOC(=O)N[C@@H](Cc1ccccc1)[C@H](O)C(=O)N1CSC(C)(C)[C@H]1C(=O)NCc1ccc(OC)cc1` [Example B64, {(1S,2S)-1-Benzyl-2-hydroxy-3-[4-(4-methoxy-benzylcarbamoyl)-5,5-dimethyl-thiazolidin-3-yl]-3-oxo-propyl}-carbamic acid prop-2-ynyl ester], for which the affinity in assay [1] corresponds to a Ki of 0.53 nM. In addition, the EC50 in assay [2] came out at 1600 nM.

`CCC(C)C(=O)NC(Cc1ccccc1)C(O)C(=O)N1CSC(C)(C)[C@H]1C(=O)NCc1ccccc1C` (stereo partly drawn) [Example B65, 3-[(2S,3S)-2-Hydroxy-3-((S)-2-methyl-butyrylamino)-4-phenyl-butyryl]-5,5-dimethyl-thiazolidine-4-carboxylic acid 2-methyl-benzylamide] returned a Ki in assay [1] of 4.9 nM. Moreover, the EC50 in assay [2] turned out to be 1640 nM.

Turning to `C#CCOC(=O)N[C@@H](Cc1ccccc1)[C@H](O)C(=O)N1CSC(C)(C)[C@H]1C(=O)NCc1ccncc1` [Example B67, ((1S,2S)-1-Benzyl-3-{5,5-dimethyl-4-[(pyridin-4-ylmethyl)-carbamoyl]-thiazolidin-3-yl}-2-hydroxy-3-oxo-propyl)-carbamic acid prop-2-ynyl ester], in assay [1], the Ki worked out at 11.4 nM. The concentration giving a half-maximal response (EC50) in assay [2] is above 3200 nM.

One may read the Ki as a measure of affinity in units of concentration, obtained from inhibition or displacement. The low end stands for a stronger hold on the target, the high end for a looser hold on the target. As usually defined, the EC50 is the concentration at which the effect is half-maximal.
